# Values quoted from earlier work, collected in PubChem BioAssay AID1259409 (Chemical Carcinogenesis Research Information System (CCRIS), 2018).
# Tested on: rodent chemically induced tumor inhibition, incidence and multiplicity
# Test: CCRIS tumor inhibitor studies
# Settings: Route [Inhibitor]: ORAL
smiles,measurement,setting,value
Cc1c(C)c2c(c(C)c1O)CC[C@@](C)(CCC[C@H](C)CCC[C@H](C)CCCC(C)C)O2,outcome,"Carcinogen: N-BIS(2-HYDROXYPROPYL)NITROSAMINE, 53609-64-6, Dose [Inhibitor]: 0, 1% IN DIET FOR 30 WK BEGINNING POST CARCINOGEN TREATMENT (STUDY DURATION: 32 WK), Species: RAT, Strain/Sex: F344/MALE, Target Tissue: Type of Lesion: LUNG: ADENOMA, Dose [Carcinogen]: 0.1% IN DRINKING WATER FOR 2 WK, Promoter: NONE USED","100%, 100%, 0, not significant"
same,"tumour outcome (control, treated, inhibition, significance)","Carcinogen: N-BIS(2-HYDROXYPROPYL)NITROSAMINE, 53609-64-6, Dose [Inhibitor]: 0, 1% IN DIET FOR 30 WK BEGINNING POST CARCINOGEN TREATMENT (STUDY DURATION: 32 WK), Species: RAT, Strain/Sex: F344/MALE, Target Tissue: Type of Lesion: THYROID: ADENOMA, Dose [Carcinogen]: 0.1% IN DRINKING WATER FOR 2 WK, Promoter: NONE USED","5%, 10%, -100%, not calculated"
same,"tumour outcome (control, treated, inhibition, significance)","Carcinogen: N-BIS(2-HYDROXYPROPYL)NITROSAMINE, 53609-64-6, Dose [Inhibitor]: 0, 1% IN DIET FOR 30 WK BEGINNING POST CARCINOGEN TREATMENT (STUDY DURATION: 32 WK), Species: RAT, Strain/Sex: F344/MALE, Target Tissue: Type of Lesion: THYROID: CARCINOMA, Dose [Carcinogen]: 0.1% IN DRINKING WATER FOR 2 WK, Promoter: NONE USED","20%, 10%, 50%, not calculated"
same,"tumour outcome (control, treated, inhibition, significance)","Carcinogen: N-BIS(2-HYDROXYPROPYL)NITROSAMINE, 53609-64-6, Dose [Inhibitor]: 0, 1% IN DIET FOR 30 WK BEGINNING POST CARCINOGEN TREATMENT (STUDY DURATION: 32 WK, Species: RAT, Strain/Sex: F344/MALE, Target Tissue: Type of Lesion: LUNG: CARCINOMA, Dose [Carcinogen]: 0.1% IN DRINKING WATER FOR 2 WK, Promoter: NONE USED","45%, 10%, 78%, p<0.05"
same,"tumour outcome (control, treated, inhibition, significance)","Carcinogen: N-METHYL-N'-NITRO-N-NITROSOGUANIDINE, 70-25-7, N-ETHYL-N-HYDROXYETHYLNITROSAMINE, 13147-25-6, N-METHYLBENZYLNITROSAM, Carcinogen: N-METHYL-N'-NITRO-N-NITROSOGUANIDINE, 70-25-7, N-ETHYL-N-HYDROXYETHYLNITROSAMINE, 13147-25-6, N-METHYLBENZYLNITROSAM, Dose [Inhibitor]: 0, 1% IN DIET FOR 36 WK (STUDY DURATION: 36 WK), Species: RAT, Strain/Sex: F344/MALE, Target Tissue: Type of Lesion: KIDNEY: RENAL CELL TUMOR, Dose [Carcinogen]: 100 MG/KG BW MNNG ONCE, 750 MG/KG BW EHEN ONCE, 0.5 MG/KG BW MBN TWICE, 40 MG/KG BW DMH 4 TIMES, 0.05% DBN IN DRINKING W, Promoter: NONE USED","8/18 (44%), 5/18 (28%), 36%, not calculated"
same,"tumour outcome (control, treated, inhibition, significance)","Carcinogen: N-METHYL-N-NITROSOUREA, 684-93-5, Dose [Inhibitor]: 0, 3.349 UMOL/G IN DIET FOR DURATION OF STUDY (STUDY DURATION: 19 WK), Species: RAT, Strain/Sex: SPRAGUE-DAWLEY/FEMALE, Target Tissue: Type of Lesion: MAMMARY GLAND: TUMOR, Dose [Carcinogen]: 30 MG/KG IN ACIDIFIED SALINE ONCE, Promoter: NONE USED","60%, 50%, 17%, not significant"
same,"tumour outcome (control, treated, inhibition, significance)","Carcinogen: N-METHYLBENZYLNITROSAMINE, 937-40-6, Dose [Inhibitor]: 30, 142 IU IN BASAL DIET BEGINNING 1 WK POST CARCINOGEN TREATMENT (STUDY DURATION: 26 WK), Species: MOUSE, Strain/Sex: C57BL/FEMALE, Target Tissue: Type of Lesion: ESOPHAGUS: TUMORS, Dose [Carcinogen]: 0.2 MG/KG BW IN CORN OIL 3/WK FOR 3 WK, Promoter: NONE USED","6/15 (40%), 3/15 (20%), 50%, p<0.05"
same,"tumour outcome (control, treated, inhibition, significance)","Carcinogen: N-METHYLBENZYLNITROSAMINE, 937-40-6, Dose [Inhibitor]: 30, 142 IU IN BASAL DIET BEGINNING 1 WK POST CARCINOGEN TREATMENT TO MICE INFECTED WITH LP-BM5 MURINE RETROVIRUS (STUDY, Species: MOUSE, Strain/Sex: C57BL/FEMALE, Target Tissue: Type of Lesion: ESOPHAGUS: TUMORS, Dose [Carcinogen]: 0.2 MG/KG BW IN CORN OIL 3/WK FOR 3 WK, Promoter: NONE USED","12/15 (80%), 11/16 (69%), 14%, not significant"
same,"tumour outcome (control, treated, inhibition, significance)","Carcinogen: N-NITROSOMETHYLBENZYLAMINE, 937-40-6, Dose [Inhibitor]: 20, 142 MG/KG DIET BEGINNING POST CARCINOGEN TREATMENT AND CONTINUING FOR DURATION OF STUDY (STUDY DURATION: 23 WK), Species: MOUSE, Strain/Sex: C57BL/FEMALE, Target Tissue: Type of Lesion: ESOPHAGUS: TUMOR, Dose [Carcinogen]: 0.2 MG/KG BW IN CORN OIL 3/WK FOR 3 WK, Promoter: ETHANOL, 64-17-5","10/17 (59%), 6/16 (38%), 36%, p<0.05"
same,"tumour outcome (control, treated, inhibition, significance)","Carcinogen: NONE USED, Dose [Inhibitor]: 25.5, 550.9 MG/KG IN DIET FOR 40 WK (STUDY DURATION: 40 WK), Species: MOUSE, Strain/Sex: STRAIN-A/MALE, Target Tissue: Type of Lesion: LUNG: TUMOR, Promoter: NONE USED","8/15 (53%), 4/15 (27%), 49%, not significant"
same,"tumour outcome (control, treated, inhibition, significance)","Carcinogen: URETHANE, 51-79-6, Dose [Inhibitor]: 25, 500 MG/KG IN DIET FOR THE DURATION OF STUDY (STUDY DURATION: 26 WK), Species: MOUSE, Strain/Sex: DDY/MALE, Target Tissue: Type of Lesion: LUNG: TUMOR, Dose [Carcinogen]: 750 MG/KG BW ONCE, Promoter: NONE USED","100%, 80%, 20%, not calculated"
